# Measured values: patent publication US20190290656A1, “PT(IV) PRODRUGS” (YISSUM RESEARCH DEVELOPMENT COMPANY OF THE HEBREW …, priority 2015, published 2019)
# Like-named read-outs stand apart in the source and are kept apart here.
# Experiments:
# A2780 cells = assay: MTT cytotoxicity assay, A2780; assay type: cell-based, human; settings: for IC50: A2780, 72 h exposure, MTT, read-out: IC50 (median growth inhibitory concentration)
# Experimental: (§1) Platinum(IV) complexes were dissolved in DMSO to stock solutions of 1 mg/mL just before the experiment, and a calculated amount of drug solution was added to the cell growth medium to a final solvent concentration of 0.5%, which had no discernible effect on cell killing. Cisplatin (CDDP) and oxaliplatin (OXP) were dissolved just before the experiment in a 0.9% NaCl solution.
# (§2) Human prostate adenocarcinoma (PC3) cells were obtained from European Collection of Cell Cultures (ECACC, Salisbury, UK). Human ovarian cancer cell lines A2780 and its cisplatin resistant variant, A2780cisR, were kindly provided by Prof.
# (§3) Cancer Res. 1988, 48, 589-601]. […] Triplicate cultures were established for each treatment.
# A2780cisR cells = assay: MTT cytotoxicity assay, A2780cisR (cisplatin resistant); assay type: cell-based, human; settings: for IC50: 72 h exposure, MTT, read-out: IC50 (median growth inhibitory concentration); for resistance factor: ratio IC50 resistant (A2780cisR) / sensitive (A2780) cells
# Experimental: as §1, §2, §3
# MCF-7 cells [1] = assay: MTT cytotoxicity assay, MCF-7; assay type: cell-based, human; settings: for IC50: MCF-7, 72 h exposure, MTT, read-out: IC50 (median growth inhibitory concentration)
# Experimental: (§4) Cisplatin (CDDP) and oxaliplatin (OXP) were dissolved just before the experiment in a 0.9% NaCl solution.
# as §2
# (§5) Triplicate cultures were established for each treatment.
# A549 cells = assay: MTT cytotoxicity assay, A549; assay type: cell-based, human; settings: A549, 72 h exposure, MTT; read-out: IC50 (median growth inhibitory concentration)
# Experimental: as §4, §2, §5
# HCT-15 cells = assay: MTT cytotoxicity assay, HCT-15; assay type: cell-based, human
# Experimental: (§6) Cisplatin (CDDP) and oxaliplatin (OXP) were dissolved just before the experiment in a 0.9% NaCl solution. […]
# as §3
# (§7) MTT assay. […] Triplicate cultures were established for each treatment.
# (§8) The two dimers, 3a and 3b, as well as compounds 1a and 2a were screened against six human cancer cell lines representative of lung (H157), colon (HCT-15), cervical (A431), ovarian (2008) and pancreatic (PSN1) cancers, along with melanoma (A375). Cytotoxicity was evaluated by means of the MTT test after 72 h of treatment and the in vitro antitumor potential of newly synthesized derivatives was compared to that of the reference metallo-drugs CDDP and OXP.
# PC3 cells = assay: MTT cytotoxicity assay, PC3; assay type: cell-based, human; settings: PC3, 72 h exposure, read-out: IC50 (median growth inhibitory concentration)
# Experimental: as §4, §2, §5
# A498 cells = assay: MTT cytotoxicity assay, A498; assay type: cell-based, human; settings: A498, 72 h exposure, read-out: IC50 (median growth inhibitory concentration)
# Experimental: as §1, §2, §3
# BxPC3 cells = assay: MTT cytotoxicity assay, BxPC3; assay type: cell-based, human; settings: for IC50: BxPC3, 72 h exposure, MTT, read-out: IC50 (median growth inhibitory concentration)
# A375 cells = assay: MTT cytotoxicity assay, A375; assay type: cell-based, human
# Experimental: as §6, §3, §7, §8
# [2] = system: Lewis lung carcinoma (LLC); assay: In vivo efficacy study, Lewis lung carcinoma mouse model; set-up: species or system C57BL mice; settings: daily dose 20 mg kg^-1 orally, day 7-14, LLC in C57BL mice
# Experimental: A preliminary in vivo efficacy study was carried out on a mouse model (see Table 3 below):
# Lewis lung carcinoma (LLC) was implanted i.m. (2·10^6 cells inoculum) into the right hind leg of 8-week old inbred C57BL mice (24±3 g body weight). Chemotherapy was delayed until the tumor became visible (day 7).
# [3] = system: Histone deacetylase (HDAC); assay: Histone deacetylase assay (Fluor-de-Lys) in MCF-7 cells; assay type: cell-based, human
# Experimental: Histone deacetylase activity was determined using Fluor-de-Lys® HDAC fluorometric activity assay kit (Enzo Life Sciences International, Inc., Plymount Meeting, Pa., U.S.A.). […] Fluorescence was measured using a Fluoroskan Ascent FL (Labsystem, Finland) plate reader, with excitation at 360 nm and emission at 460 nm. For comparison purpose, the HDAC activity was also measured in nuclear extracts of MCF-7-treated cells by means of the same fluorometric activity assay kit. In this latter case, MCF-7 nuclear extracts were obtained as follow: cell pellets were re-suspended in lysis buffer [Tris.HCl (10 mM, pH 8.0), KCl (60 mM), EDTA (1.2 mM), DTT (1 mM), PMSF (0.05 mM), NP-40 (0.05%)] and kept on ice for 10 min. Subsequently, samples were centrifuged at 1000 g and re-suspended in the nuclear extraction buffer [Tris.HCl (20 mM, (pH 8.0), NaCl (420 mM), MgCl2 (0.7 mM), EDTA (0.25 mM), glycerol (25%)] for 30 min at 4° C., and then centrifuged at 15000 g for 15 min at 4° C.
# The complexes described here were specifically designed to release either VPA of PhB inside the cells in the hope that they will inhibit HDAC activity paving the way for more efficient DNA platination. Thus, in addition to measuring the levels of DNA platination, we also measured the ability of these pro-drugs to inhibit HDAC activity in cells. […] For comparison purposes, the HDAC inhibitory effect determined by tested complexes was also assayed in isolated nuclei of MCF-7 treated cells (FIG. 3B).
# The HDAC activity was determined by the Fluor de Lys® Fluorescent Cellular Activity Assay (Enzo Life Sciences).
# Also, MCF-7 cells were incubated for 24 h with increasing concentrations of compounds I-VIII and their HDAC activity was determined. The IC50 values for the inhibition of HDAC activity in the cells are depicted in FIG. 3C.
# MCF-7 cells [4] = assay: Nuclear DNA fragmentation ELISA, MCF-7; assay type: cell-based, human; settings: MCF-7, 24 h, IC50 concentrations
# Description: FIGS. 4A-4C describe: FIG. 4A—Nuclear DNA fragmentation. […] Quantitative estimation of DNA fragmentation was obtained with an ELISA test. Data are the means of five independent experiments. Error bars indicate SD. […] FIG. 4C—Caspase activity. […] Data are the means of at least three independent experiments. Error bars indicate SD.
# To gain more insights into the mode of action of newly synthesized Pt(IV) derivatives, compounds 1 and 6 were chosen for further experiments. In particular, their capacity to induce apoptosis against human breast MCF-7 cells treated with equitoxic concentrations (IC50 values) of these drugs was evaluated and compared. Nuclear DNA fragmentation and apoptosome complex formation are critical steps in the apoptotic process. […] Apoptotic cell death induction was confirmed through a Hoechst 33342 staining.
# nine cancer cell lines = assay: MTT cytotoxicity, over the nine cancer cell lines; settings: for IC50: read-out: average IC50 values for the nine cancer cell lines, mean over nine cell lines, 72 h MTT
# [5] = octanol/water partition, shake-flask method; assay type: physicochemical
# Experimental: To quantify the hydrophobicity of the platinum complexes, partition coefficients (log P) values for octanol/water partition were measured using the shake-flask method.
# 2008 cells = assay: MTT cytotoxicity assay, 2008; assay type: cell-based, human; settings: 2008, 72 h, MTT
# Experimental: as §7, §8
# A431 cells = assay: MTT cytotoxicity assay, A431; assay type: cell-based, human; settings: A431, 72 h
# Experimental: as §7, §8
# H157 cells = assay: MTT cytotoxicity assay, H157; assay type: cell-based, human; settings: H157, 72 h
# Experimental: as §7, §8
# PSN1 cells = assay: MTT cytotoxicity assay, PSN1; assay type: cell-based, human; settings: PSN1, 72 h, MTT
# Experimental: as §7, §8
# HCT-15 spheroids = assay: 3D spheroid APH assay, HCT-15; assay type: cell-based, human; settings: HCT-15 spheroids, 72 h, APH test
# Description: (§9) Acid phosphatase (APH) assay. A modified APH assay, which is based on quantification of cytosolic acid phosphatase activity, was used for determining cell viability in spheroids. […] Triplicate cultures were established for each treatment. […] Evaluation was based on means from at least four independent experiments.
# (§10) In order to improve the predictive capacity of the in vitro assays, we tested the activity in three three-dimensional (3D) cell cultures; human colon cancer cells, HCT-15, and human pancreatic cancer cells, KRAS wild type BxPC3 cells KRAS mutated PSN-1 cells. The cancer spheroids were treated with 3a and 3b for 72 h and the cell viability was assessed by means of the APH assay (Table 6). For comparison purposes, the cytotoxicities of CDDP and OXP were evaluated under the same experimental conditions.
# BxPC3 spheroids = assay: 3D spheroid APH assay, BxPC3; assay type: cell-based, human; settings: 72 h, APH test
# Description: as §9, §10
# PSN-1 spheroids = assay: 3D spheroid APH assay, PSN-1; assay type: cell-based, human; settings: PSN-1 spheroids, 72 h, APH test
# Description: as §9, §10
# [6] = HCT-15, 72 h exposure, MTT (Table 1), read-out: IC50 (median growth inhibitory concentration)
# [7] = A375, 72 h exposure, MTT (Table 1), read-out: IC50 (median growth inhibitory concentration)
Structure (SMILES),IC50 (A2780 cells),IC50 (A2780cisR cells; A2780cisR),resistance factor (A2780cisR cells),IC50 (MCF-7 cells [1]),IC50 (A549 cells),IC50 (HCT-15 cells; [6]),IC50 (PC3 cells),IC50 (A498 cells),IC50 (BxPC3 cells),IC50 (A375 cells; [7]),IC50 (nine cancer cell lines),also measured
"CCCC(CCC)C(=O)[O][Pt]([Cl])([Cl])[O]C(=O)C(CCC)CCC.N.N [I, Ctc-Pt(NH3)2(C8H15O2)2Cl2]]",0.25 ± 0.09 µM,0.3 ± 0.1 µM,1.2,0.91 ± 0.3 µM,1.12 ± 0.32 µM,0.81 ± 0.12 µM,2.13 ± 0.45 µM,2.43 ± 0.72 µM,1.13 ± 0.14 µM,1.25 ± 0.25 µM,1.15 µM,"fold more potent than cisplatin (A2780 cells; A2780): 11 fold; fold more potent/effective than cisplatin (A2780cisR cells; A2780cisR): 46 fold; times more effective/potent than cisplatin (MCF-7 cells [1]; MCF-7): about 19 fold; times more effective than cisplatin (HCT-15 cells; HCT-15): ~14 fold; times more effective/potent than cisplatin (BxPC3 cells; BxPC3): ~10 fold; Average tumor weight (mean ± SD, g) [2]: 0.179 ± 0.07 g; Inhibition of tumor growth (%) [2]: 68.21%; IC50 for cellular inhibition of HDAC activity (in words) ([3]; MCF-7, 24 h, increasing concentrations): highest inhibitory effect; inhibition of HDAC activity ([3]; MCF-7, 24 h incubation with IC50 concentrations): ~65%; times higher induction of nucleosome formation compared with cisplatin (MCF-7 cells [4]): 1.5 fold; fold more potent than the mono-VPA monoacetato analog (nine cancer cell lines; average of the nine cell lines): 4.6 fold; average fold more potent than cisplatin (nine cancer cell lines; average over cell lines): 8 fold"
"CCCC(CCC)C(=O)[O][Pt]([NH2])([NH2])([Cl])([Cl])[O]C(C)=O [II, Pt(NH3)2Cl2(C2H3O2)(C8H15O2)]]",1.02 ± 0.6 µM,1.62 ± 0.3 µM,1.6,5.74 ± 1.1 µM,8.36 ± 1.14 µM,6.36 ± 1.03 µM,7.32 ± 1.24 µM,4.21 ± 0.95 µM,3.54 ± 0.66 µM,2.17 ± 0.53 µM,4.48 µM,Log P [5]: 0.17 ± 0.02; fold reduction in potency compared with ctc-[Pt(NH3)2(VPA)2Cl2] (nine cancer cell lines; range over cell lines): 1.7-7.9 fold
"O=C1[O][Pt]2([NH][C@@H]3CCCC[C@H]3[NH]2)[O]C1=O [OXP, oxaliplatin, reference compound]",0.52 ± 0.27 µM,4.2 ± 1.6 µM,,3.36 ± 0.2 µM,1.46 ± 0.31 µM,1.15 ± 0.43 µM,5.24 ± 0.86 µM,7.94 ± 1.04 µM,4.15 ± 0.93 µM,6.3 ± 1.11 µM,4.9 µM,"IC50 (HCT-15 cells; HCT-15, 72 h, MTT (Table 5), read-out: IC50 (μM) ± S.D.): 1.15 ± 0.43 µM; IC50 (A375 cells; A375, 72 h, MTT (Table 5), read-out: IC50 (μM) ± S.D.): 6.3 ± 2.01 µM; effect on HDAC activity (in words) ([3]; MCF-7, 24 h, IC50 concentrations): not effective in modifying HDAC activity; IC50 (2008 cells): 1.53 ± 0.88 µM; IC50 (A431 cells): 3.06 ± 0.88 µM; IC50 (H157 cells): 5.99 ± 1.85 µM; IC50 (PSN1 cells): 8.25 ± 3.42 µM; IC50 (HCT-15 spheroids): 36.5 ± 3.12 µM; IC50 (BxPC3 spheroids): 75.2 ± 6.91 µM; IC50 (PSN-1 spheroids): 59.7 ± 8.52 µM"
